The values below come from patent US9790235B2, “MK2 inhibitors and uses thereof” (Celgene CAR LLC, priority 2014, dated 2017).

One may read the IC50 as the point on the concentration scale where inhibition reaches its midpoint. What is called EC50 is the concentration at which the effect is half-maximal.

For assay [1], the target named is p38α activated, mitogen-activated protein kinase-activated protein kinase 2 (MAPKAP-K2 or MK2) enzyme (Homo sapiens (Human), UniProt P49137). Briefly: MK2 Omnia continuous-read kinase assay for compound potency. Type of assay: biochemical. The note with it: read-out: MK2 IC50. The text has this:
Mitogen-Activated Protein Kinase-Activated Protein Kinase 2 Omnia® Assay for Compound Potency Assessment:
The protocol below describes a continuous-read kinase assay optimized to measure potency of compounds against p38α activated, mitogen-activated protein kinase-activated protein kinase 2 (MAPKAP-K2 or MK2) enzyme. Further details of this assay are described by Life Technologies, Carlsbad, Calif. on their website at the following URL: http://tools.lifetechnologies.com/content/sfs/manuals/omnia_kinase_assay_man.pdf.
[Reagent] used: • [MK-2]=0.4 nM, • [ATP]=10 μM and • [ST3-Sox]=10 μM (ATP^appKM=10 μM)
Kinase reactions were started with the addition of 45 μL of the ATP-peptide substrate S/T3-Sox mix and monitored every 71 seconds for 120 minutes at λex360/λem485 in a Synergy H4 plate reader from BioTek (Winooski, Vt.) at room temperature.
Background signals from the no enzyme control wells were subtracted from all progress curves. The initial linear portions of the net progress curves were fit according to a linear equation to yield the slope and percentage of inhibition (% inhibition) at each compound concentration. The net progress curves obtained during the first two hours of reactions were also fit according to an ascending single-exponential equation (Eq. 1) to yield kobs values at each compound concentration. Plots of % Inhibition versus inhibitor concentrations were fit according to a dose-response equation (Eq. 2) to generate IC50 and Hill slope values while plots of kobs versus inhibitor concentration were fit according to Equation 3 (Eq. 3) to generate apparent kinact/KI values using the GraphPad PRISM software (Version 6.00; GraphPad San Diego, Calif.).
[formula] where F is the fluorescence intensity from the plate reader, V0 is a constant reflecting the relationship between the instrument readout and product concentration, t is time, e is Euler's number, and kobs is the observed inactivation rate constant.
[formula] where % Inhibition is percentage of inhibition, IC50 is half maximal inhibitory concentration, [I] is the inhibitor concentration, and n is the Hill slope.

The target of assay [2] is T1, MK2 (Homo sapiens (Human), UniProt P49137). Briefly: MK2 cellular assay, total and phospho-Hsp27 (Serine 78) by MSD ELISA (Thp1). It counts as cell-based. Conditions: Thp-1 cells, 1 hour compound, 50 ng/mL LPS 45 minutes, p-HSP27 (Ser78)/total HSP27; read-out: pHSP27 signaling EC50. The method, then:
MK2 Cellular Assay—Detection of Total and Phospho-Hsp27 (Serine 78) by MSD ELISA (Thp1)
Compounds of the invention were assayed in Thp-1 human acute monocytic leukemia cells to measure inhibition of MK2 activity. Thp-1 cells were grown in culture medium containing RPMI/10% FBS (fetal bovine serum)/0.05 mM 2-mercaptoethanol. 72 hours prior to the assay, 8×10^4 cells per well were plated in a 96 well flat bottom plate along with 10 ng/mL phorbol 12-myristate 13-acetate (PMA). Cells were cultured in an incubator at 37° C. until needed for the assay. Cell plate media was replaced with culture media just prior to assay while compound dilutions were being made.
Stock solutions of test compound, 1 mM in DMSO, were prepared. 0.9 μl of test compound was added to 300 μl cell media for a starting concentration of 3000 nM. […] Cell plate media was discarded, followed by addition of 100 μl of the compound containing media. The resulting preparation was incubated at 37° C. for 1 hour.
Test compound-containing cell assay media was removed and the cells were washed once with cell assay media. Cell assay media containing 50 ng/mL LPS (lipopolysaccharide) was added to the each well and incubated for 45 minutes. Following LPS incubation, the cells were washed once with PBS (phosphate-buffered saline) and lysed with 60 μl Cell Extraction Buffer (Invitrogen #FNN0011) plus protease and phosphatase inhibitors. The plate was then stored at −80° C. until further analysis.
The MULTI-SPOT Phospho(Ser78)/Total HSP27 ELISA Assay kit was purchased from Meso Scale […] (MSD; catalog #K15128D). […] The pre-coated MSD plate was blocked with 150 μL/well of 3% BSA in MSD wash buffer. The preparation was placed on a shaker at room temperature for an hour. While the ELISA plate was blocked, the cell assay plate stored at −80° C. was placed on a shaker at 4° C. for 1 hour to thaw.
The blocked MSD plate was washed on a plate washer, tapping out the last bit of wash solution, followed by addition of 30 μl of the lysate from the cell assay plate. The preparation was covered and incubated for 1 hour at room temperature. The lysate was removed, the plate was washed 3 times on a plate washer and the last bit of wash buffer was tapped out and replaced with 25 μl/well detection antibody (anti-total HSP27 conjugated with an electrochemiluminescent compound, MSD SULFO-TAG label, supplied in kit) made in 1% BSA/MSD wash buffer. The plate was incubated for 1 hour at room temperature on a shaker, followed by 3 washes. The last bit of wash buffer was tapped out. 150 μl/well 1×MSD read buffer was added (4× read buffer supplied with kit) and the plate was analyzed on the MSD SECTOR® Imager for analysis. The SECTOR® Imager measures intensity of emitted light to provide a quantitative measure of phosphorylated HSP27 (Ser78) and total HSP27 present in the sample. The relative percent phosphoprotein in a sample is calculated by dividing the Phospho-HSP27 signal intensity over the total HSP27 signal intensity measured in each well.
In general terms: An ELISA detects its analyte on a solid surface through an enzyme-linked reagent.

Assay [3] has as its target T1, MK2.
Experimental: Aliquots of the resulting mixture (6 μL each) were diluted with 0.2% trifluoroacetic acid (TFA, 10 μL) prior to micro C4 ZipTipping directly onto the MALDI target using sinapinic acid as the desorption matrix (10 mg/ml in 0.1% TFA:acetonitrile 50:50, v/v). The centroid mass of the target protein in the control sample was compared with the centroid mass of the target protein incubated with compound. A shift in the centroid mass of the treated protein compared to the untreated protein was divided by the molecular weight of the compound. This number corresponds to the percentage of modified protein (a measure of the proportion of total target protein covalently bound to the test compound) after one hour incubation.
3 μL of magnetic Ni-NTA beads were added to the 6 μL aliquots of sample, washed, eluted with 0.2% trifluoroacetic acid (TFA, 2 μL), and spotted directly onto the MALDI target using sinapinic acid as the desorption matrix (10 mg/ml in 0.1% TFA:acetonitrile 50:50, v/v). The centroid mass of the target protein in the control sample was compared with the centroid mass of the target protein incubated with compound. A shift in the centroid mass of the treated protein compared to the untreated protein was divided by the molecular weight of the compound. This number corresponds to the percentage of modified protein (a measure of the proportion of total target protein covalently bound to the test compound) after one hour incubation.
Where [4] appears, read: [MK-2]=0.4 nM, [ATP]=10 μM, [ST3-Sox]=10 μM.
Where [5] appears, read: percentage of modified protein after 60 minutes at room temperature, 10-fold excess of compound, MALDI (I-1 to I-50), magnetic bead MALDI (I-51 to I-129).

Read-outs that look alike come from different tables or passages of the source. Where only a bound is given, the exact number is not on record here.
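Wherever Mass Modification is given: covalent binding read from centroid mass shift of compound-treated versus untreated intact MK2, shift divided by compound molecular weight, giving fraction of total protein bound.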

p38α activated, mitogen-activated protein kinase-activated protein kinase 2 (MAPKAP-K2 or MK2) enzyme, sequence (P49137 whole entry): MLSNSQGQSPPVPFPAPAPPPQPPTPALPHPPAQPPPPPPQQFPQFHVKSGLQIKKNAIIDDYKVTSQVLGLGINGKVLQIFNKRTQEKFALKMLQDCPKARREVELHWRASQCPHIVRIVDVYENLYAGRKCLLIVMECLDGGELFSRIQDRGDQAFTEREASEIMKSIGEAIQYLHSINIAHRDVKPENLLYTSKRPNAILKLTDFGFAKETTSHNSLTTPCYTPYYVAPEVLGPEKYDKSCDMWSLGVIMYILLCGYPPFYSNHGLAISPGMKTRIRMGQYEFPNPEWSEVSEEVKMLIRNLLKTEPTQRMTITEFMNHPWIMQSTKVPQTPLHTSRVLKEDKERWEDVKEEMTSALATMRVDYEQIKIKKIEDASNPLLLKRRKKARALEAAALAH
T1 sequence (P49137 whole entry): as above

Consider `C[C@@H]1CNc2c(sc3ccc4nc(Nc5nc(Cl)ncc5C(N)=O)ccc4c23)C(=O)N1` [I-9, (R)-2-chloro-4-((10-methyl-8-oxo-9,10,11,12-tetrahydro-8H-[1,4]diazepino[5′,6′:4,5]thieno[3,2-f]quinolin-3-yl)amino)pyrimidine-5-carboxamide], for which the IC50 in assay [1] (setting [4]) was under 100 nM. Moreover, the EC50 in assay [2] was under 100 nM. In assay [3] (setting [5]), the “Mass Modification” value is “E (mass modification of ≧70%)”.

Turning to `C[C@@H]1CNc2c(sc3ccc4nc(Nc5nc(Cl)nc(N6CCN(C)CC6)n5)ccc4c23)C(=O)N1` [I-10, (R)-3-((4-chloro-6-(4-methylpiperazin-1-yl)-1,3,5-triazin-2-yl)amino)-10-methyl-9,10,11,12-tetrahydro-8H-[1,4]diazepino[5′,6′:4,5]thieno[3,2-f]quinolin-8-one], the half-inhibitory concentration (IC50) in assay [1] (setting [4]) is under 100 nM. For the same compound, in assay [2], the EC50 lay within 101 to 500 nM. In assay [3] (setting [5]), the “Mass Modification” value was “G (mass modification ≦30%)”.

As to `C[C@@H]1CNc2c(sc3ccc4nc(Nc5ccnc(S(C)(=O)=O)n5)ccc4c23)C(=O)N1` [I-14, (R)-10-methyl-3-((2-(methylsulfonyl)pyrimidin-4-yl)amino)-9,10,11,12-tetrahydro-8H-[1,4]diazepino[5′,6′:4,5]thieno[3,2-f]quinolin-8-one], the IC50 in assay [1] (setting [4]) was under 100 nM. Also, in assay [2], the EC50 was over 1000 nM. Besides, the “Mass Modification” value in assay [3] (setting [5]) is on record as “G (mass modification ≦30%)”.

Take `C[C@@H]1CNc2c(sc3ccc4nc(Nc5cc(Cl)ncc5C(N)=O)ccc4c23)C(=O)N1` [I-15, (R)-6-chloro-4-((10-methyl-8-oxo-9,10,11,12-tetrahydro-8H-[1,4]diazepino[5′,6′:4,5]thieno[3,2-f]quinolin-3-yl)amino)nicotinamide]: the IC50 in assay [1] (setting [4]) was under 100 nM. In addition, in assay [2], the EC50 was over 1000 nM. For the same compound, the “Mass Modification” value in assay [3] (setting [5]) was “G (mass modification ≦30%)”.

On to `C[C@@H]1CNc2c(sc3ccc4nc(Nc5nc(Cl)ncc5C#N)ccc4c23)C(=O)N1` [I-16, (R)-2-chloro-4-((10-methyl-8-oxo-9,10,11,12-tetrahydro-8H-[1,4]diazepino[5′,6′:4,5]thieno[3,2-f]quinolin-3-yl)amino)pyrimidine-5-carbonitrile], for which the IC50 in assay [1] (setting [4]) is under 100 nM. For the same compound, the EC50 in assay [2] was under 100 nM. For the same compound, the “Mass Modification” value in assay [3] (setting [5]) is on record as “E (mass modification of ≧70%)”.

Turning to `O=C1N[C@H](CO)CNc2c1sc1ccc3nc(Nc4cc(F)ncn4)ccc3c21` [I-17, (S)-3-((6-fluoropyrimidin-4-yl)amino)-10-(hydroxymethyl)-9,10,11,12-tetrahydro-8H-[1,4]diazepino[5′,6′:4,5]thieno[3,2-f]quinolin-8-one], in assay [1] (setting [4]), the IC50 was under 100 nM. In assay [2], the concentration for a half-maximal effect (EC50) is over 1000 nM. For the same compound, in assay [3] (setting [5]), the “Mass Modification” value is “F (mass modification of 31-69%)”.

For `CCOC(=O)c1cnc(Cl)nc1Nc1ccc2c(ccc3sc4c(c32)NC[C@@H](C)NC4=O)n1` [I-18, (R)-ethyl 2-chloro-4-((10-methyl-8-oxo-9,10,11,12-tetrahydro-8H-[1,4]diazepino[5′,6′:4,5]thieno[3,2-f]quinolin-3-yl)amino)pyrimidine-5-carboxylate], the IC50 in assay [1] (setting [4]) is under 100 nM. Besides, in assay [2], the half-maximal effective concentration (EC50) lay in the range of 101 to 500 nM. Besides, the “Mass Modification” value in assay [3] (setting [5]) is listed as “F (mass modification of 31-69%)”.

Take `O=C1N[C@H](CO)CNc2c1sc1ccc3nc(Nc4cc(Cl)ncn4)ccc3c21` [I-22, (S)-3-((6-chloropyrimidin-4-yl)amino)-10-(hydroxymethyl)-9,10,11,12-tetrahydro-8H-[1,4]diazepino[5′,6′:4,5]thieno[3,2-f]quinolin-8-one]: the IC50 in assay [1] (setting [4]) was under 100 nM. In addition, the concentration giving a half-maximal response (EC50) in assay [2] lay within 501 to 999 nM. For the same compound, the “Mass Modification” value in assay [3] (setting [5]) was “F (mass modification of 31-69%)”.

As to `C[C@@H]1CNc2c(sc3ccc4nc(Nc5nc(Cl)ncc5C(=O)N5CC[C@@H](N(C)C)C5)ccc4c23)C(=O)N1` [I-24, (R)-3-((2-chloro-5-((R)-3-(dimethylamino)pyrrolidine-1-carbonyl)pyrimidin-4-yl)amino)-10-methyl-9,10,11,12-tetrahydro-8H-[1,4]diazepino[5′,6′:4,5]thieno[3,2-f]quinolin-8-one], the IC50 in assay [1] (setting [4]) was in the range of 501 to 999 nM. The EC50 in assay [2] is over 1000 nM. Also, the “Mass Modification” value in assay [3] (setting [5]) was “G (mass modification ≦30%)”.

For `C[C@@H]1CNc2c(sc3ccc4nc(Nc5cc(Cl)ncc5C#N)ccc4c23)C(=O)N1` [I-25, (R)-6-chloro-4-((10-methyl-8-oxo-9,10,11,12-tetrahydro-8H-[1,4]diazepino[5′,6′:4,5]thieno[3,2-f]quinolin-3-yl)amino)nicotinonitrile], the IC50 in assay [1] was under 100 nM. Besides, the EC50 in assay [2] is under 100 nM. In assay [3], the “Mass Modification” value is listed as “F (key: E: mass modification of ≧70%; F: mass modification of 31-69%; G: mass modification ≦30%)”.

For `NC[C@@H]1CNc2c(sc3ccc4nc(Nc5cc(F)ncn5)ccc4c23)C(=O)N1` [I-26, (R)-10-(aminomethyl)-3-((6-fluoropyrimidin-4-yl)amino)-9,10,11,12-tetrahydro-8H-[1,4]diazepino[5′,6′:4,5]thieno[3,2-f]quinolin-8-one], the IC50 in assay [1] (setting [4]) was under 100 nM. In addition, the EC50 in assay [2] was over 1000 nM. The “Mass Modification” value in assay [3] (setting [5]) is “E (mass modification of ≧70%)”.

For `C[C@@H]1CNc2c(sc3ccc4nc(Nc5cc(F)ncc5C#N)ccc4c23)C(=O)N1` [I-27, (R)-6-fluoro-4-((10-methyl-8-oxo-9,10,11,12-tetrahydro-8H-[1,4]diazepino[5′,6′:4,5]thieno[3,2-f]quinolin-3-yl)amino)nicotinonitrile], in assay [1] (setting [4]), the IC50 is under 100 nM. In addition, the EC50 in assay [2] was under 100 nM. The “Mass Modification” value in assay [3] (setting [5]) was “G (mass modification ≦30%)”.

Take `NC[C@@H]1CNc2c(sc3ccc4nc(Nc5cc(Cl)ncn5)ccc4c23)C(=O)N1` [I-28, (R)-10-(aminomethyl)-3-((6-chloropyrimidin-4-yl)amino)-9,10,11,12-tetrahydro-8H-[1,4]diazepino[5′,6′:4,5]thieno[3,2-f]quinolin-8-one]: the IC50 in assay [1] (setting [4]) was under 100 nM. The concentration giving a half-maximal response (EC50) in assay [2] was over 1000 nM. In assay [3] (setting [5]), the “Mass Modification” value is reported as “E (mass modification of ≧70%)”.

Turning to `C[C@@H]1CNc2c(sc3ccc4nc(Oc5nc(Cl)ncc5-c5cccnc5)ccc4c23)C(=O)N1` [I-123, (R)-3-((2-chloro-5-(pyridin-3-yl)pyrimidin-4-yl)oxy)-10-methyl-9,10,11,12-tetrahydro-8H-[1,4]diazepino[5′,6′:4,5]thieno[3,2-f]quinolin-8-one], the IC50 in assay [1] (setting [4]) is under 100 nM. Also, in assay [2], the EC50 is under 100 nM.
